Target: T1, hM5 (Homo sapiens, UniProt P08912)
T1 construct: expressed in transfected cells
T1 sequence (P08912 1-532): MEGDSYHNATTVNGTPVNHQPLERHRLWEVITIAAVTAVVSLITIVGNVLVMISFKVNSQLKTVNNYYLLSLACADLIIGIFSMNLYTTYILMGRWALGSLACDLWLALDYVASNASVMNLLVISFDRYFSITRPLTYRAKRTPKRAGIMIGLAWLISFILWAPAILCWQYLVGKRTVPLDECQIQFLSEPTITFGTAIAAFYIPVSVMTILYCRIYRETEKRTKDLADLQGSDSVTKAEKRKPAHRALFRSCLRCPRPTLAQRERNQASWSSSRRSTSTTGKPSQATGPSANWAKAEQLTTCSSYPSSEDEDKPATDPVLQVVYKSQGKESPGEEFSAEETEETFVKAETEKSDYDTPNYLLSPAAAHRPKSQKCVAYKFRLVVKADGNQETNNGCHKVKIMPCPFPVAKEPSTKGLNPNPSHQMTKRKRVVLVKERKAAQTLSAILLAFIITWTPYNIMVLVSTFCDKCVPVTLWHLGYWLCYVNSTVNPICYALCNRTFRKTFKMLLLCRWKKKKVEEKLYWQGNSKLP
Test: Calcium mobilization concentration-response (IC50 vs EC80 acetylcholine), CHO hM5
Assay type: cell-based
Conditions: CELL LINE hM5; calcium mobilization, EC80 acetylcholine addition; read-out: IC50
Summary of the method: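 CHO cells stably expressing hM5, dye-loaded, in HBSS/20 mM HEPES/2.5 mM probenecid, pH 7.4. Compounds were pre-incubated 140 s before an EC80 acetylcholine challenge, with calcium flux read kinetically.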

Q: Which IC50 does the source give for `Cc1sc(C#N)nc1C1CCN(S(=O)(=O)c2cnn(C)c2C)CC1` [Compound 225, 4-(1-((1,5-dimethyl-1H-pyrazol-4-yl)sulfonyl)piperidin-4-yl)-5-methylthiazole-2-carbonitrile] here?
A: The IC50 was greater than 10 µM.

Q: For `O=S(=O)(c1ccc2ncsc2c1)N1CCC(c2nc3cccnc3s2)CC1` [Compound 11, 2-(1-(benzo[d]thiazol-6-ylsulfonyl)piperidin-4-yl)thiazolo[5,4-b]pyridine], which IC50 is on record?
A: The IC50 was greater than 10 µM.

Q: Which IC50 does the source give for `COc1ccc(S(=O)(=O)N2CCC(c3nn4ccnc4cc3C)CC2)cn1` [Compound 42, 6-(1-((6-methoxypyridin-3-yl)sulfonyl)piperidin-4-yl)-7-methylimidazo[1,2-b]pyridazine] here?
A: Its IC50 is greater than 10 µM.

Q: For `Cc1c(S(=O)(=O)N2CCC(c3cn4ncnc4cc3F)CC2)cnn1C` [Compound 161, 6-(1-((1,5-dimethyl-1H-pyrazol-4-yl)sulfonyl)piperidin-4-yl)-7-fluoro-[1,2,4]triazolo[1,5-a]pyridine], which IC50 is on record?
A: Its IC50 is 0.125 µM.

Q: For `Cc1cc2ncnn2cc1C1CCN(S(=O)(=O)c2cc(C(F)(F)F)nn2C)CC1` [Compound 146, 7-methyl-6-(1-((1-methyl-3-(trifluoromethyl)-1H-pyrazol-5-yl)sulfonyl)piperidin-4-yl)-[1,2,4]triazolo[1,5-a]pyridine], which IC50 is on record?
A: The IC50 was greater than 10 µM.

Q: `O=S(=O)(c1ccc2ncsc2c1)N1CCC(c2cc3[nH]ccc3cn2)CC1` [Compound 30, 6-((4-(1H-pyrrolo[3,2-c]pyridin-6-yl)piperidin-1-yl)sulfonyl)benzo[d]thiazole] was tested. Which IC50 did it give?
A: Its IC50 is greater than 10 µM.

Q: `Cc1cc2nccn2nc1C1CCN(S(=O)(=O)c2cccnc2)CC1` [Compound 53, 7-methyl-6-(1-(pyridin-3-ylsulfonyl)piperidin-4-yl)imidazo[1,2-b]pyridazine] was tested. Which IC50 did it give?
A: Its IC50 is greater than 10 µM.

Q: With `Cc1cc(C#N)cnc1C1=CCN(S(=O)(=O)c2ccc3c(c2)CCO3)CC1` [Compound 210, 1′-((2,3-dihydrobenzofuran-5-yl)sulfonyl)-3-methyl-1′,2′,3′,6′-tetrahydro-[2,4′-bipyridine]-5-carbonitrile] as the molecule, how does the IC50 read?
A: Its IC50 is greater than 10 µM.

Q: For `Cc1cc2ncnn2cc1[C@@H]1CCN(S(=O)(=O)c2cnn(C)c2C)C[C@H]1O` (racemic) [Compound 197, (rac)-trans-1-((1,5-dimethyl-1H-pyrazol-4-yl)sulfonyl)-4-(7-methyl-[1,2,4]triazolo[1,5-a]pyridin-6-yl)piperidin-3-ol], which IC50 is on record?
A: Its IC50 is 0.594 µM.

Q: Which IC50 does the source give for `Cc1nc2cc(C)c(C3CCN(S(=O)(=O)c4ccc5c(c4)C(C)CO5)CC3)cn2n1` (stereo not drawn) [Compound 89, 2,7-dimethyl-6-(1-((3-methyl-2,3-dihydrobenzofuran-5-yl)sulfonyl)piperidin-4-yl)-[1,2,4]triazolo[1,5-a]pyridine] here?
A: Its IC50 is 2.1 µM.

Q: For `Cc1nc(C)c(S(=O)(=O)N2CCC(c3nn4ncnc4cc3C)CC2)s1` [Compound 215, 2,4-dimethyl-5-((4-(7-methyl-[1,2,4]triazolo[1,5-b]pyridazin-6-yl)piperidin-1-yl)sulfonyl)thiazole], which IC50 is on record?
A: The IC50 was greater than 10 µM.

Q: How did the IC50 turn out when `O=S(=O)(c1ccc2c(c1)CCO2)N1CCC(c2ncc3cc[nH]c3n2)CC1` [Compound 33, 2-(1-((2,3-dihydrobenzofuran-5-yl)sulfonyl)piperidin-4-yl)-7H-pyrrolo[2,3-d]pyrimidine] was run?
A: The IC50 was greater than 10 µM.

Q: For `O=S(=O)(c1cc2c(cc1F)OCC2)N1CCC(c2ccc3ncnn3c2)CC1` [Compound 61, 6-(1-((6-fluoro-2,3-dihydrobenzofuran-5-yl)sulfonyl)piperidin-4-yl)-[1,2,4]triazolo[1,5-a]pyridine], which IC50 is on record?
A: Its IC50 is greater than 10 µM.

Q: Which IC50 does the source give for `Cc1cc(C#N)ncc1C1=CCN(S(=O)(=O)c2ccc3c(c2)CCO3)CC1` [Compound 240, 1′-((2,3-dihydrobenzofuran-5-yl)sulfonyl)-4-methyl-1′,2′,3′,6-tetrahydro-[3,4′-bipyridine]-6-carbonitrile] here?
A: The IC50 was greater than 10 µM.

Q: With `[2H]C([2H])([2H])n1ncc(S(=O)(=O)N2CCC(c3cn4ncnc4cc3C)CC2)c1C1CC1` [Compound 131, 6-(1-((5-cyclopropyl-1-(methyl-d3)-1H-pyrazol-4-yl)sulfonyl)piperidin-4-yl)-7-methyl-[1,2,4]triazolo[1,5-a]pyridine] as the molecule, how does the IC50 read?
A: Its IC50 is 0.028 µM.

Q: Which IC50 does the source give for `Cc1nn(C)cc1S(=O)(=O)N1CCC(c2ccc3ncnn3c2)CC1` [Compound 63, 6-(1-((1,3-dimethyl-1H-pyrazol-4-yl)sulfonyl)piperidin-4-yl)-[1,2,4]triazolo[1,5-a]pyridine] here?
A: The IC50 was greater than 10 µM.

Q: For `Cc1ncc(S(=O)(=O)N2CC=C(c3cn4nc(C(F)F)nc4cc3C)CC2)s1` [Compound 317, 5-((4-(2-(Difluoromethyl)-7-methyl-[1,2,4]triazolo[1,5-a]pyridin-6-yl)-3,6-dihydropyridin-1(2H)-yl)sulfonyl)-2methylthiazole], which IC50 is on record?
A: The IC50 was 6.9 µM.

Q: For `C=Cc1cc2ncnn2cc1C1=CCN(S(=O)(=O)c2cnn(C)c2C)CC1` [Compound 147, 6-(1-((1,5-dimethyl-1H-pyrazol-4-yl)sulfonyl)-1,2,3,6-tetrahydropyridin-4-yl)-7-vinyl-[1,2,4]triazolo[1,5-a]pyridine], which IC50 is on record?
A: Its IC50 is 0.051 µM.

Q: Which IC50 does the source give for `O=S(=O)(c1cnn2c1NCCC2)N1CCC(c2cn3ncnc3cc2F)CC1` [Compound 253, 7-fluoro-6-(1-((4,5,6,7-tetrahydropyrazolo[1,5-a]pyrimidin-3-yl)sulfonyl)piperidin-4-yl)-[1,2,4]triazolo[1,5-a]pyridine] here?
A: Its IC50 is 0.057 µM.

Q: Which IC50 does the source give for `O=S(=O)(c1ccc2c(c1)CCO2)N1CCC(c2ccc3c(c2)OCO3)CC1` [Compound 359, 4-(benzo[d][1,3]dioxol-5-yl)-1-((2,3-dihydrobenzofuran-5-yl)sulfonyl)piperidine] here?
A: Its IC50 is greater than 10 µM.

Q: Which IC50 does the source give for `Cc1cc2nccn2nc1C1CCN(S(=O)(=O)c2c(C)nn(C)c2Cl)CC1` [Compound 248, 6-(1-((5-chloro-1,3-dimethyl-1-pyrazol-4-yl)sulfonyl)piperidin-4-yl)-7-methylimidazo[1,2-b]pyridazine] here?
A: Its IC50 is 0.069 µM.

Q: `O=S(=O)(c1ccc2ncccc2c1)N1CCC(c2cc3cc[nH]c3nn2)CC1` [Compound 23, 6-((4-(7H-pyrrolo[2,3-c]pyridazin-3-yl)piperidin-1-yl)sulfonyl)quinoline] was tested. Which IC50 did it give?
A: The IC50 was 2.56 µM.

Q: Which IC50 does the source give for `Cc1nn(C)cc1S(=O)(=O)N1CCC(c2cc3cc[nH]c3cn2)CC1` [Compound 95, 5-(1-((1,3-dimethyl-1H-pyrazol-4-yl)sulfonyl)piperidin-4-yl)-1H-pyrrolo[2,3-c]pyridine] here?
A: The IC50 was greater than 10 µM.

Q: Which IC50 does the source give for `Cc1cc2ncnn2cc1C1CCN(S(=O)(=O)c2c(Cl)nc3sccn23)CC1` [Compound 324, 6-chloro-5-((4-(7-methyl-[1,2,4]triazolo[1,5-a]pyridin-6-yl)piperidin-1-yl)sulfonyl)imidazo[2,1-b]thiazole] here?
A: The IC50 was 0.013 µM.

Same assay, conditions: CELL LINE hM5; vs EC80 acetylcholine; read-out: IC50

Q: How did the IC50 turn out when `CCc1cc2ncnn2cc1C1CCN(S(=O)(=O)c2cnc(C)o2)CC1` [Compound 496, 5-((4-(7-ethyl-[1,2,4]triazolo[1,5-a]pyridin-6-yl)piperidin-1-yl)sulfonyl)-2-methyloxazole] was run?
A: Its IC50 is 0.889 µM.

Q: `CO[C@@H]1CN(S(=O)(=O)c2cnn(C)c2C)CC[C@H]1c1cn2ncnc2cc1C` (racemic) [Compound 411, (rac)-6-(trans-1-((1,5-dimethyl-1H-pyrazol-4-yl)sulfonyl)-3-methoxypiperidin-4-yl)-7-methyl-[1,2,4]triazolo[1,5-a]pyridine] was tested. Which IC50 did it give?
A: Its IC50 is 0.288 µM.

Q: Which IC50 does the source give for `Cn1cc(S(=O)(=O)N2CCC(c3cn4ncnc4cc3F)CC2)nn1` [Compound 571, 7-fluoro-6-(1-((1-methyl-1H-1,2,3-triazol-4-yl)sulfonyl)piperidin-4-yl)-[1,2,4]triazolo[1,5-a]pyridine] here?
A: Its IC50 is greater than 10 µM.

Q: With `Cc1cc2nccn2nc1N1CCN(S(=O)(=O)c2cnn3c2CCC3)CC1` [Compound 435, 6-(4-((5,6-dihydro-4H-pyrrolo[1,2-b]pyrazol-3-yl)sulfonyl)piperazin-1-yl)-7-methylimidazo[1,2-b]pyridazine] as the molecule, how does the IC50 read?
A: Its IC50 is 0.022 µM.

Q: How did the IC50 turn out when `Cc1cc2ncnn2cc1C1CCN(S(=O)(=O)c2cnn(C)c2CN)CC1` [Compound 529, (1-methyl-4-((4-(7-methyl-[1,2,4]triazolo[1,5-a]pyridin-6-yl)piperidin-1-yl)sulfonyl)-1H-pyrazol-5-yl)methanamine] was run?
A: Its IC50 is 0.371 µM.

Q: `Cc1cc2ncnn2nc1C1CCN(S(=O)(=O)c2cn(C)nn2)CC1` [Compound 559, 7-methyl-6-(1-((1-methyl-1H-1,2,3-triazol-4-yl)sulfonyl)piperidin-4-yl)-[1,2,4]triazolo[1,5-b]pyridazine] was tested. Which IC50 did it give?
A: The IC50 was greater than 10 µM.

Q: How did the IC50 turn out when `Cc1cc(S(=O)(=O)N2CCC(c3cn4ncnc4c(F)c3C)CC2)sn1` [Compound 485, 5-((4-(8-fluoro-7-methyl-[1,2,4]triazolo[1,5-a]pyridin-6-yl)piperidin-1-yl)sulfonyl)-3-methylisothiazole] was run?
A: The IC50 was 0.017 µM.

Q: With `[2H]c1nc2cc(Cl)c(C3=CCN(S(=O)(=O)c4cnc(C)o4)CC3)cn2n1` [Compound 610, 5-((4-(7-chloro-[1,2,4]triazolo[1,5-a]pyridin-6-yl-2-d)-3,6-dihydropyridin-1(2H)-yl)sulfonyl)-2-methyloxazole] as the molecule, how does the IC50 read?
A: The IC50 was 0.04 µM.

Q: With `Cc1cc2ncnn2cc1C1CCN(S(=O)(=O)c2cnn(C)c2-c2scnc2C)CC1` [Compound 598, 4-Methyl-5-(1-methyl-4-((4-(7-methyl-[1,2,4]triazolo[1,5-a]pyridin-6-yl)piperidin-1-yl)sulfonyl)-1H-pyrazo1-5-yl)thiazole] as the molecule, how does the IC50 read?
A: Its IC50 is 0.804 µM.

— patent US20230183237A1, “COMPETITIVE AND NONCOMPETITIVE INHIBITORS OF THE MUSCARINIC ACETYLCHOLINE RECEPTOR M5” (Vanderbilt University, priority 2020, published 2023)
